Where two headings read alike, the source gives them in different places.
What was measured:
PqsR = biological target: T1, PqsR (Pseudomonas aeruginosa, UniProt Q9I4X0); experiment: PQS-dependent pqsA::lux expression in AQ-non producing PAO1-L ΔpqsA (PqsR antagonism); format: cell-based
T1 construct: endogenous in cells; host or cells: P. aeruginosa PAO1-L ΔpqsA, chromosomal pqsA::lux fusion
Description: The inhibitory action of 4-(4-chlorophenyl)-5-methylene-pyrrol-2-one (Ref. 488) may involve inhibition of AQ biosynthesis or 4-(4-chlorophenyl)-5-methylene-pyrrol-2-one (Ref. 488) may behave like an antagonist and block the PQS receptor, PqsR. […] Experiments were therefore designed to determine the nature and degree of 4-(4-chlorophenyl)-5-methylene-pyrrol-2-one (Ref. 488) inhibitory activity.
By using the AQ-non producing P. aeruginosa strain PAO1-L ΔpqsA, pqsA::lux, the EC50 value for the native PqsR agonist, PQS was calculated as ˜2 μM (Ilangovan et al. 2013).
The experiment shown in FIG. 8 was then repeated using 4-(4-chlorophenyl)-5-methylene-pyrrol-2-one (Ref. 488) concentrations of 0, 50, 100 and 200 μM.
A partial agonist is a molecule that can bind to and activate a receptor resulting in a non-complete response compared with a full agonist. […] This contrasts with its activity as an antagonist in the presence of 10 or 40 μM PQS.

[1] = tested on: P. aeruginosa PAO1 pqsA::lux; experiment: pqsA::lux promoter fusion biosensor in P. aeruginosa PAO1-L (AQ-dependent quorum sensing); format: cell-based, Pseudomonas aeruginosa; conditions: for IC50: Pseudomonas aeruginosa, PAO1, read-out: IC50, pqsA::lux expression; for inhibition of light output / pqsA expression at high concentrations: FIG. 6 and 7
Procedure: The expression of rhl and las AHL- and the pqsA AQ-synthase genes was evaluated using lux-based lasl (FIG. 1), rhll (FIG. 2) and pqsA (FIG. 3) chromosomally integrated promoter fusions. Luminescence was quantified as a function of bacterial growth. The applicant further determined that none of the lactams is growth inhibitory at 100 μM using a large number of strains (figure not shown).
To determine the relative inhibitory activities (IC50s) of 4-(4-chlorophenyl)-5-methylene-pyrrol-2-one (Ref. 488) and 5-methylene-4-(p-tolyl)pyrrol-2-one (Ref. 491), dose response curves were constructed using the same biosensor strain (P. aeruginosa PAO1 pqsA::lux; Fletcher et al, 2007; Ilangovan et al 2013). This strain produces light in response to the endogenous production of AQs such as PQS and HHQ.

[2] = tested on: P. aeruginosa strain PAO1-L; experiment: pyocyanin production by PAO1-L, visual assessment; format: cell-based, Pseudomonas aeruginosa; conditions: 100 μM (vial 2), 8 h at 37° C., qualitative
Description: Pyocyanin is a blue redox-active secondary metabolite and a putative signalling molecule in P. aeruginosa (Jayaseelan et al, 2014). The pyocyanin biosynthetic (phz) genes are regulated by QS and in part via the transcriptional regulator PqsR acting through PqsE (Rampioni et al 2011).
Although qualitative, this observation offers further confirmation of the inhibitory effects of lactam 4-(4-chlorophenyl)-5-methylene-pyrrol-2-one (Ref. 488) on AQ-dependent QS.

[3] = tested on: PAO1-N ΔpqsAHR pqsA'::lux; experiment: PqsR-independent pqsA'::lux expression in PAO1-N ΔpqsAHR; format: cell-based, Pseudomonas aeruginosa; conditions: presence or absence of 40 μM PQS, FIG. 11
Description: PQS is capable of weakly activating pqsA in the absence of PqsR via a mechanism that is not fully understood but appears to depend on the iron chelating properties of PQS. The aim of this experiment was to clarify whether lactam 4-(4-chlorophenyl)-5-methylene-pyrrol-2-one (Ref. 488) is also inhibitory for pqsA expression via the PqsR independent pathway. As previously described, the pqsA′::lux biosensor based on the triple mutant PAO1-N ΔpqsAHR cannot produce AQs and lacks pqsR but still responds to exogenous PQS. This response is however much weaker that the PqsR-dependent response.

[4] = tested on: P. aeruginosa PA14 pqsA'::lux; experiment: pqsA'::lux fusion in P. aeruginosa PA14; format: cell-based; conditions: Pseudomonas aeruginosa, PA14, read-out: IC50, pqsA'::lux expression in PA14
Description: To investigate the inhibitory effect of 4-(4-chlorophenyl)-5-methylene-pyrrol-2-one (Ref. 488) on P. aeruginosa PA14, a pqsA′::lux fusion was introduced onto the chromosome.

PqsABCD = experiment: AQ (HHQ) biosynthesis by PqsABCD, TLC with biosensor overlay; format: cell-based, Pseudomonas aeruginosa; conditions: 200 μM, PAO1-N ΔpqsAHR pBBR-pqsABCD, overnight in LB
Description: To determine whether 4-(4-chlorophenyl)-5-methylene-pyrrol-2-one (Ref. 488) is capable of inhibiting the enzymes (PqsABCD) involved in AQ biosynthesis, the P. aeruginosa PAO1-N ΔpqsAHR was exploited. This mutant cannot produce AQs because the genes coding for the key biosynthetic enzymes (PqsA and PqsH) and regulation (PqsR) have been deleted. To restore AQ production in a PqsR-independent manner in PAO1-N ΔpqsA, the pqsABCD genes were introduced on a plasmid (pBBR pqsABCD; Niewerth et al. 2011). P. aeruginosa PAO1-N ΔpqsAHR and P. aeruginosa PAO1-N ΔpqsAHR pBBR pqsABCD were both incubated overnight in LB with and without 4-(4-chlorophenyl)-5-methylene-pyrrol-2-one (Ref. 488) (200 μM), resuspended to an OD600 1.0. The cultures were extracted with acidified ethyl acetate, the organic phase removed, dried and resuspended in methanol subjected to thin layer chromatography (TLC).
After chromatography using a dichloromethane-methanol mobile phase, the TLC plates were overlaid with a thin agar layer containing the AQ biosensor strain PAO1-L ΔpqsA CTX::pqsA′-luxCDABE (Fletcher et al. 2007) incubated and examined for reporter output (FIG. 13). […] The biosensor strain produces light (FIG. 13 panel C) and pyocyanin (FIG. 13 panel B) in response to AQs that bind to PqsR and activate the pqsA promoter.

T1 sequence (Q9I4X0 whole entry, the tested form may be a part): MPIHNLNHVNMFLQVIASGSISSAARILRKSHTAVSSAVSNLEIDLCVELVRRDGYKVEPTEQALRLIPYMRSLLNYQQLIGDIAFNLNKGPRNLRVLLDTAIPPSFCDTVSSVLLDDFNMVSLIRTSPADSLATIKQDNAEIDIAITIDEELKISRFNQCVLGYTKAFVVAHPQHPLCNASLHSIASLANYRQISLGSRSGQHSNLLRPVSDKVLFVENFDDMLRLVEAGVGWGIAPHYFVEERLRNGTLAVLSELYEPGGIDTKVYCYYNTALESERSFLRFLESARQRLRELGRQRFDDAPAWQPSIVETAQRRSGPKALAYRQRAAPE

SMILES | EC50 (PqsR; EC50 of PQS for pqsA::lux expression in the presence of lactam 488, fixed concentration of 488 (215 μM), range of PQS concentrations, FIG. 8) | EC50 (PqsR; EC50 of PQS for pqsA::lux expression, PQS alone, PAO1-L ΔpqsA pqsA::lux) | EC50 (PqsR; PQS alone, PAO1-L ΔpqsA pqsA::lux, read-out: EC50 of PQS for pqsA::lux expression) | IC50 [1] | inhibition of light output / pqsA expression at high concentrations [1] | inhibition of the PqsR-dependent pqsA::lux promoter fusion (screen) ([1]; lactams at 100 μM, FIG. 3) | pyocyanin production [2] | mode of action on PQS-dependent pqsA::lux expression (PqsR; 488 at 0, 50, 100 and 200 μM, range of PQS, FIG. 9) | restoration of light output by PQS in the presence of the lactam (PqsR; 488 at 50, 100, 200 μM, FIG. 9) | partial agonist activity (activation of pqsA expression) (PqsR; concentrations up to 800 μM, without PQS, FIG. 10) | fold increase of PQS EC50 caused by the lactam (PqsR; fixed concentration of 488 (215 μM)) | effect on the PqsR-independent expression of pqsA [3] | IC50 [4] | inhibition of HHQ biosynthesis (PqsABCD)
CCCCCCCc1[nH]c2ccccc2c(=O)c1O [PQS, 2-heptyl-3-hydroxy-4-(1H)-quinolone, reference compound] | 31 µM | ~2 µM | 2 µM |  |  |  |  |  |  |  |  |  |  | 
C=C1NC(=O)C=C1c1ccc(Cl)cc1 [Lactam 488, 4-(4-chlorophenyl)-5-methylene-pyrrol-2-one] |  |  |  | 22 µM | completely inhibited light output | most potent inhibitor | inhibition of pyocyanin production | competitive antagonist | fully restoring light output in the presence of 50 μM but not 100 μM or 200 μM | no partial agonist activity | ~15 fold | small inhibitory effect | 17.9 µM | did not inhibit HHQ biosynthesis
C=C1NC(=O)C=C1c1ccc(C)cc1 [Lactam 491, 5-methylene-4-(p-tolyl)pyrrol-2-one] |  |  |  | 44 µM | did not inhibit pqsA expression as strongly |  |  |  |  |  |  |  |  | 

— US10875830B2, “Method of treatment” (priority 2016, dated 2020)
